{"source": "PubChem BioAssay (NCI)", "test_in_all_cases": "growth of human tumour cells (NCI), 48 h", "key": {"HOP-62 NSCLC": {"test_system": "HOP-62 NSCLC"}, "SF-295 CNS": {"test_system": "SF-295 CNS"}, "SW-620 colon": {"test_system": "SW-620 colon"}, "OVCAR-3 ovarian": {"test_system": "OVCAR-3 ovarian"}, "U251 CNS": {"test_system": "U251 CNS"}, "UACC-62 melanoma": {"test_system": "UACC-62 melanoma"}, "MDA-N": {"test_system": "MDA-N"}, "MDA-MB-231 breast": {"test_system": "MDA-MB-231 breast"}, "MOLT-4 leukemia": {"test_system": "MOLT-4 leukemia"}, "SN12C renal": {"test_system": "SN12C renal"}, "A498 renal": {"test_system": "A498 renal"}, "NCI-H226 lung": {"test_system": "NCI-H226 lung"}, "TK-10 renal": {"test_system": "TK-10 renal"}, "M14 melanoma": {"test_system": "M14 melanoma"}, "OVCAR-4 ovarian": {"test_system": "OVCAR-4 ovarian"}, "SR leukemia": {"test_system": "SR leukemia"}, "SF-268 CNS": {"test_system": "SF-268 CNS"}, "OVCAR-5 ovarian": {"test_system": "OVCAR-5 ovarian"}, "NCI-H23 lung": {"test_system": "NCI-H23 lung"}, "COLO 205 colon": {"test_system": "COLO 205 colon"}}, "note": "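Five concentrations, 48 hours, 96-well plates. TGI is the concentration that stops growth completely.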", "data": [{"smiles": "C=CC(c1ccccc1)[C@@]1(OC(C)=O)C(=O)C(=O)OC1C1COC(C)(C)O1", "note": "(stereo not given in full)", "values": [{"measurement": "TGI", "setting": "HOP-62 NSCLC", "value": 34.2, "unit": "µM"}, {"measurement": "TGI", "setting": "SF-295 CNS", "value": 31.6, "unit": "µM"}, {"measurement": "TGI", "setting": "SW-620 colon", "value": 35.8, "unit": "µM"}, {"measurement": "TGI", "setting": "OVCAR-3 ovarian", "value": 24.8, "unit": "µM"}, {"measurement": "TGI", "setting": "U251 CNS", "value": 28.7, "unit": "µM"}, {"measurement": "TGI", "setting": "UACC-62 melanoma", "value": 29, "unit": "µM"}, {"measurement": "TGI", "setting": "MDA-N", "value": 24.1, "unit": "µM"}, {"measurement": "TGI", "setting": "MDA-MB-231 breast", "value": 28.5, "unit": "µM"}, {"measurement": "TGI", "setting": "MOLT-4 leukemia", "value": 34.6, "unit": "µM"}, {"measurement": "TGI", "setting": "SN12C renal", "value": 21.7, "unit": "µM"}, {"measurement": "TGI", "setting": "A498 renal", "value": 47.9, "unit": "µM"}, {"measurement": "TGI", "setting": "NCI-H226 lung", "value": 37.6, "unit": "µM"}, {"measurement": "TGI", "setting": "TK-10 renal", "value": 27.1, "unit": "µM"}, {"measurement": "TGI", "setting": "M14 melanoma", "value": 25.5, "unit": "µM"}, {"measurement": "TGI", "setting": "OVCAR-4 ovarian", "value": 30.5, "unit": "µM"}, {"measurement": "TGI", "setting": "SR leukemia", "value": 10.2, "unit": "µM"}, {"measurement": "TGI", "setting": "SF-268 CNS", "value": 71.4, "unit": "µM"}, {"measurement": "TGI", "setting": "OVCAR-5 ovarian", "value": 33.2, "unit": "µM"}, {"measurement": "TGI", "setting": "NCI-H23 lung", "value": 42.9, "unit": "µM"}, {"measurement": "TGI", "setting": "COLO 205 colon", "value": 26.5, "unit": "µM"}]}, {"smiles": "CC(=O)OCC1OC(n2c(-c3ccccc3)c(C(C)=O)c(-c3ccc(Cl)cc3)c(C#N)c2=S)C(OC(C)=O)C(OC(C)=O)C1OC(C)=O", "note": "(stereo not given)", "values": [{"measurement": "TGI", "setting": "HOP-62 NSCLC", "value": "> 100", "unit": "µM"}, {"measurement": "TGI", "setting": "SF-295 CNS", "value": "> 100", "unit": "µM"}, {"measurement": "TGI", "setting": "SW-620 colon", "value": "> 100", "unit": "µM"}, {"measurement": "TGI", "setting": "OVCAR-3 ovarian", "value": "> 100", "unit": "µM"}, {"measurement": "TGI", "setting": "U251 CNS", "value": "> 100", "unit": "µM"}, {"measurement": "TGI", "setting": "UACC-62 melanoma", "value": "> 100", "unit": "µM"}, {"measurement": "TGI", "setting": "MDA-N", "value": "> 100", "unit": "µM"}, {"measurement": "TGI", "setting": "MDA-MB-231 breast", "value": "> 100", "unit": "µM"}, {"measurement": "TGI", "setting": "MOLT-4 leukemia", "value": "> 100", "unit": "µM"}, {"measurement": "TGI", "setting": "SN12C renal", "value": "> 100", "unit": "µM"}, {"measurement": "TGI", "setting": "A498 renal", "value": "> 100", "unit": "µM"}, {"measurement": "TGI", "setting": "NCI-H226 lung", "value": "> 100", "unit": "µM"}, {"measurement": "TGI", "setting": "TK-10 renal", "value": "> 100", "unit": "µM"}, {"measurement": "TGI", "setting": "M14 melanoma", "value": "> 100", "unit": "µM"}, {"measurement": "TGI", "setting": "OVCAR-4 ovarian", "value": "> 100", "unit": "µM"}, {"measurement": "TGI", "setting": "SR leukemia", "value": "> 100", "unit": "µM"}, {"measurement": "TGI", "setting": "SF-268 CNS", "value": "> 100", "unit": "µM"}, {"measurement": "TGI", "setting": "OVCAR-5 ovarian", "value": "> 100", "unit": "µM"}, {"measurement": "TGI", "setting": "NCI-H23 lung", "value": "> 100", "unit": "µM"}, {"measurement": "TGI", "setting": "COLO 205 colon", "value": "> 100", "unit": "µM"}]}, {"smiles": "COc1cc(/C=C2\\C[C@H]3[C@@H]4CC=C5C=C(N6CCCC6)CC[C@]5(C)[C@H]4CC[C@]3(C)C2=O)cc(OC)c1OC", "values": [{"measurement": "TGI", "setting": "HOP-62 NSCLC", "value": 7.17, "unit": "µM"}, {"measurement": "TGI", "setting": "SF-295 CNS", "value": 7.04, "unit": "µM"}, {"measurement": "TGI", "setting": "SW-620 colon", "value": "> 41.6", "unit": "µM"}, {"measurement": "TGI", "setting": "OVCAR-3 ovarian", "value": 4.07, "unit": "µM"}, {"measurement": "TGI", "setting": "U251 CNS", "value": 4.7, "unit": "µM"}, {"measurement": "TGI", "setting": "UACC-62 melanoma", "value": 5.46, "unit": "µM"}, {"measurement": "TGI", "setting": "MDA-N", "value": 4.2, "unit": "µM"}, {"measurement": "TGI", "setting": "MDA-MB-231 breast", "value": 6.62, "unit": "µM"}, {"measurement": "TGI", "setting": "MOLT-4 leukemia", "value": "> 28", "unit": "µM"}, {"measurement": "TGI", "setting": "SN12C renal", "value": 12.1, "unit": "µM"}, {"measurement": "TGI", "setting": "A498 renal", "value": 21, "unit": "µM"}, {"measurement": "TGI", "setting": "NCI-H226 lung", "value": 34.3, "unit": "µM"}, {"measurement": "TGI", "setting": "TK-10 renal", "value": 21.4, "unit": "µM"}, {"measurement": "TGI", "setting": "M14 melanoma", "value": 5.37, "unit": "µM"}, {"measurement": "TGI", "setting": "OVCAR-4 ovarian", "value": 22.5, "unit": "µM"}, {"measurement": "TGI", "setting": "SR leukemia", "value": "> 100", "unit": "µM"}, {"measurement": "TGI", "setting": "SF-268 CNS", "value": 5.05, "unit": "µM"}, {"measurement": "TGI", "setting": "OVCAR-5 ovarian", "value": 30.8, "unit": "µM"}, {"measurement": "TGI", "setting": "NCI-H23 lung", "value": 7.96, "unit": "µM"}, {"measurement": "TGI", "setting": "COLO 205 colon", "value": 10.7, "unit": "µM"}]}, {"smiles": "CC(C)CC1C(=O)NCCC(NC(=O)C(N)Cc2ccc(O)cc2)C(=O)NC(Cc2ccccc2)C(=O)NC(Cc2ccccc2)NC1=O", "note": "(stereo not given)", "values": [{"measurement": "TGI", "setting": "HOP-62 NSCLC", "value": "> 100", "unit": "µM"}, {"measurement": "TGI", "setting": "SF-295 CNS", "value": "> 100", "unit": "µM"}, {"measurement": "TGI", "setting": "SW-620 colon", "value": "> 100", "unit": "µM"}, {"measurement": "TGI", "setting": "OVCAR-3 ovarian", "value": "> 100", "unit": "µM"}, {"measurement": "TGI", "setting": "U251 CNS", "value": "> 100", "unit": "µM"}, {"measurement": "TGI", "setting": "UACC-62 melanoma", "value": "> 100", "unit": "µM"}, {"measurement": "TGI", "setting": "MDA-N", "value": "> 100", "unit": "µM"}, {"measurement": "TGI", "setting": "MDA-MB-231 breast", "value": "> 100", "unit": "µM"}, {"measurement": "TGI", "setting": "MOLT-4 leukemia", "value": "> 100", "unit": "µM"}, {"measurement": "TGI", "setting": "SN12C renal", "value": "> 100", "unit": "µM"}, {"measurement": "TGI", "setting": "A498 renal", "value": "> 100", "unit": "µM"}, {"measurement": "TGI", "setting": "NCI-H226 lung", "value": "> 100", "unit": "µM"}, {"measurement": "TGI", "setting": "TK-10 renal", "value": "> 100", "unit": "µM"}, {"measurement": "TGI", "setting": "M14 melanoma", "value": "> 100", "unit": "µM"}, {"measurement": "TGI", "setting": "OVCAR-4 ovarian", "value": "> 100", "unit": "µM"}, {"measurement": "TGI", "setting": "SR leukemia", "value": "> 100", "unit": "µM"}, {"measurement": "TGI", "setting": "SF-268 CNS", "value": "> 100", "unit": "µM"}, {"measurement": "TGI", "setting": "OVCAR-5 ovarian", "value": "> 100", "unit": "µM"}, {"measurement": "TGI", "setting": "NCI-H23 lung", "value": "> 100", "unit": "µM"}, {"measurement": "TGI", "setting": "COLO 205 colon", "value": "> 100", "unit": "µM"}]}]}
